Data published in ChEMBL document CHEMBL1201862, “PubChem BioAssay data set” (2004).
Activity calls are given as the source filed them.

Columns and labels:
[1] = target: Histone-lysine N-methyltransferase NSD2 (Homo sapiens, UniProt O96028); type: biochemical
[2] = Counterscreen for […] of the human trace amine associated receptor 1 (TAAR1): Fluorescence-based cell-based high throughput dose response assay to identify nonselective Ga16 agonists.; type: functional
[3] = target: T1, Trace amine-associated receptor 1 (Homo sapiens, UniProt Q96RJ0); assay: Fluorescence-based cell-based high throughput dose response assay to identify antagonists of the human trace amine associated receptor 1 (TAAR1).; type: functional
T1 sequence (Q96RJ0 whole entry): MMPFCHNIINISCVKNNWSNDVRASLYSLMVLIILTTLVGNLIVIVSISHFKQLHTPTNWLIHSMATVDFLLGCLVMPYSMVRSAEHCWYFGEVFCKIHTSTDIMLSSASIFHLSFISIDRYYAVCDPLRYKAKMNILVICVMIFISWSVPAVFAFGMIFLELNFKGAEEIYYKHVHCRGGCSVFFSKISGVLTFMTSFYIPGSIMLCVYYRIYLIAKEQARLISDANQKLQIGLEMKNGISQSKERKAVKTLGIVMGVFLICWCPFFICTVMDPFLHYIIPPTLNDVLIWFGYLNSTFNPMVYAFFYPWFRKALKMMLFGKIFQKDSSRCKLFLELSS

[4] = Counterscreen for antagonists of the human trace amine associated receptor 1 (hTAAR1): Fluorescence-based cell-based high throughput dose response assay to identify nonselective Ga16 antagonists.; type: functional
[5] = target: T1, Trace amine-associated receptor 1; assay: Counterscreen for antagonists of the human trace amine associated receptor 1 (hTAAR1): Fluorescence-based cell-based high throughput dose response assay to identify TAAR1 Agonists.; type: functional
Beta-lactamase [6] = target: Beta-lactamase (Salmonella choleraesuis (strain SC-B67), UniProt Q5J463); assay: Epi-absorbance-based counterscreen for selective VIM-2 inhibitors: dose response biochemical high throughput screening assay to identify inhibitors of TEM-1 serine-beta-lactamase.
Beta-lactamase [7] = target: T2, Beta-lactamase (Pseudomonas aeruginosa, UniProt Q79MP6); assay: IMP-1 metallo-beta-lactamase inhibitors, dose response, selectivity assay for VIM-2 inhibitor project, biochemical, epi-absorbance (AID 1920)
Beta-lactamase [8] = target: T2, Beta-lactamase; assay: […] counterscreen for selective VIM-2 inhibitors: dose response biochemical high throughput screening assay to identify inhibitors of IMP-1 metallo-beta-lactamase.
Vero = assay: Vero cell toxicity, dose response, cytotoxicity control, plate reader, cherry-pick samples (AID 687020); type: functional, cell-based; conditions: Chlorocebus sabaeus
A549 = assay: A549 cell toxicity, dose response, cytotoxicity control, plate reader, cherry-pick samples (AID 687028); type: functional, cell-based; conditions: Homo sapiens
[9] = target: T3, Matrix metalloproteinase-14 (Homo sapiens, UniProt P50281); assay: SAR confirmation of uHTS hits for a small molecule inhibitors of MT1-MMP activation in a fluorescence assay.; type: functional
[10] = target: T3, Matrix metalloproteinase-14; assay: Dose Response confirmation of uHTS hits for a small molecule inhibitors of MT1-MMP activation in a fluorescence assay set 2.; type: functional
[11] = target: 26S proteasome non-ATPase regulatory subunit 14 (Homo sapiens, UniProt O00487); assay: inhibition of proteasome subunit RPN11 – biochemical, fluorescence polarization, uHTS hits, confirmation (AID 602368); type: functional
[12] = target: 72 kDa type IV collagenase (Homo sapiens, UniProt P08253); assay: Dose Response validation of uHTS RPN11 inhibitor hits using a MMP-2 Fluorescence assay.; type: functional
Prothrombin = Prothrombin (Bos taurus, UniProt P00735); assay: thrombin inhibition, dose response, biochemical, fluorescence polarization, uHTS hits (AID 602369); type: functional
[13] = target: Arf-GAP with SH3 domain, ANK repeat and PH domain-containing protein 1 (Homo sapiens, UniProt Q9ULH1); type: functional;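 also: biochemical fluorescence polarization dose–response screen measuring inhibition of ASAP1; ASAP1 GAP domain stimulating GTP hydrolysis by truncated human ARF1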
[14] = target: Long-chain-fatty-acid--AMP ligase FadD28 (Mycobacterium tuberculosis, UniProt P9WQ59); assay: Fluorescence polarization aasay to screen for inhibitors that compete for the binding of FadD28 to a bisubstrate Measured in Biochemical System Using Plate Reader - 2147-01_Inhibitor_Dose_CherryPick_Activity.; type: functional, Mycobacterium tuberculosis H37Rv
[15] = HEK293T cytotoxicity, dose response, cytotoxicity control for miR-122 modulator project, cell-based, inhibitor set, cherry-pick, set 2 (AID 720697); type: functional
BJ [16] = assay: cytotoxicity toward BJ-TERT fibroblasts, dose response, cell-based, RAS-independent, luminescence (AID 1933); type: functional; conditions: Homo sapiens
BJ [17] = assay: cells; type: functional, cell-based; conditions: Homo sapiens
BJ [18] = assay: cytotoxicity toward BJ-TERT-LT-ST fibroblasts, dose response, cell-based, RAS-independent, luminescence (AID 1935); type: functional; conditions: Homo sapiens;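 also: BJ fibroblasts immortalized with TERT plus LT and ST oncogenes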
[19] = cytotoxicity toward DRD oncogenic fibroblasts, dose response, cell-based, non-viral oncogenic, luminescence (AID 1934); type: functional; conditions: Homo sapiens
[20] = Shn3 3'UTR reporter inhibitors, dose response, cell-based, Clone20 osteoblasts, firefly luciferase, cherry-picked (AID 624132); type: functional;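 also: firefly luciferase luminescence from reporter carrying the Shn3 3'UTR in osteoblasts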
[21] = HepG2 cell cytotoxicity, dose response, cytotoxicity control for Shn3 inhibitor project, CellTiter-Glo, cherry-picked (AID 624134); type: functional, cell-based
[22] = control 3'UTR Renilla luciferase suppression, dose response, counter-screen for Shn3 inhibitor project, cell-based, Clone20-Shn3RL, cherry-picked (AID 624133); type: functional
[23] = ADAM10 inhibitors, peptide cleavage, dose response, biochemical, QFRET (AID 743254);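 also: ADAM10 enzyme with the DM2 quenched FRET peptide as substrate; EDANS fluorescence gain as the protease cuts the substrate; inhibitor potency against ADAM10 proteolytic activity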
[24] = target: Disintegrin and metalloproteinase domain-containing protein 17 (Homo sapiens, UniProt P78536); assay: ADAM17 protease inhibitors, dose response, counter-screen for ADAM10 exosite inhibitor project, biochemical, quenched FRET substrate (AID 743253)
Sequence of Disintegrin and metalloproteinase domain-containing protein 17 (P78536 whole entry, the tested form may be a part): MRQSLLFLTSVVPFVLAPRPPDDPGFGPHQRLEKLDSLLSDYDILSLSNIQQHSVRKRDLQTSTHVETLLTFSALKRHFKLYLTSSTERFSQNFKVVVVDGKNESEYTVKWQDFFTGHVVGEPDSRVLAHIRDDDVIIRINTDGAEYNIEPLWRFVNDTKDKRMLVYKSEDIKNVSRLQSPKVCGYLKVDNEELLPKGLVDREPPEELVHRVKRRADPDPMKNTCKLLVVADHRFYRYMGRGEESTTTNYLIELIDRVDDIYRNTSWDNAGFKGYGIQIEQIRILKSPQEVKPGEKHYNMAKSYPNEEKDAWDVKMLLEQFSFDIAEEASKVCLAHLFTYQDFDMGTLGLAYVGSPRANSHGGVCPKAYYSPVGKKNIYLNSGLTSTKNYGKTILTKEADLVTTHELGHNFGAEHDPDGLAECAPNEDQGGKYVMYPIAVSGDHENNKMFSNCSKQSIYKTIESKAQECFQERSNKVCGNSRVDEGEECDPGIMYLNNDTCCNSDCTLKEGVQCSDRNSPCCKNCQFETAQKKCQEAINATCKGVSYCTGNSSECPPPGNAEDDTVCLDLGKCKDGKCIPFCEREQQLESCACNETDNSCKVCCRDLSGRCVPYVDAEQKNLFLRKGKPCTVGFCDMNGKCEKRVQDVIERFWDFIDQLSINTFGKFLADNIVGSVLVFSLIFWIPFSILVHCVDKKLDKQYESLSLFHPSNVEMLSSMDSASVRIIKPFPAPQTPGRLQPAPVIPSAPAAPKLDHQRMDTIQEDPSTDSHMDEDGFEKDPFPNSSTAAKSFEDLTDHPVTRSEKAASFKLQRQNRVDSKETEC

T2 sequence (Q79MP6 whole entry): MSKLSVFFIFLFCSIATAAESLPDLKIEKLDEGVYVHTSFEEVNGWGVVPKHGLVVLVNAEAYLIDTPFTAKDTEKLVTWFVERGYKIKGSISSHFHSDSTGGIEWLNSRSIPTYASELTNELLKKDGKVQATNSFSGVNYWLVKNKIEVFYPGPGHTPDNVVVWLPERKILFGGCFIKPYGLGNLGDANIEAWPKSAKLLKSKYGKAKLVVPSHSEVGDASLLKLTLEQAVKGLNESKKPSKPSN
Sequence of Beta-lactamase (Salmonella choleraesuis (strain SC-B67), UniProt Q5J463) (Q5J463 whole entry): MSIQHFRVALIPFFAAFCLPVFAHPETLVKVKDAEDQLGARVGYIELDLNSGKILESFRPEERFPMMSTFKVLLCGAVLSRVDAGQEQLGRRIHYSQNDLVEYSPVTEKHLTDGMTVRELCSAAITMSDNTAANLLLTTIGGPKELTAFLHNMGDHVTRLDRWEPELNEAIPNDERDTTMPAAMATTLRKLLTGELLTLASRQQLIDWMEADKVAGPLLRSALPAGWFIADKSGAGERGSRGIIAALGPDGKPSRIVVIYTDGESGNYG
Sequence of Arf-GAP with SH3 domain, ANK repeat and PH domain-containing protein 1 (Q9ULH1 whole entry, the tested form may be a part): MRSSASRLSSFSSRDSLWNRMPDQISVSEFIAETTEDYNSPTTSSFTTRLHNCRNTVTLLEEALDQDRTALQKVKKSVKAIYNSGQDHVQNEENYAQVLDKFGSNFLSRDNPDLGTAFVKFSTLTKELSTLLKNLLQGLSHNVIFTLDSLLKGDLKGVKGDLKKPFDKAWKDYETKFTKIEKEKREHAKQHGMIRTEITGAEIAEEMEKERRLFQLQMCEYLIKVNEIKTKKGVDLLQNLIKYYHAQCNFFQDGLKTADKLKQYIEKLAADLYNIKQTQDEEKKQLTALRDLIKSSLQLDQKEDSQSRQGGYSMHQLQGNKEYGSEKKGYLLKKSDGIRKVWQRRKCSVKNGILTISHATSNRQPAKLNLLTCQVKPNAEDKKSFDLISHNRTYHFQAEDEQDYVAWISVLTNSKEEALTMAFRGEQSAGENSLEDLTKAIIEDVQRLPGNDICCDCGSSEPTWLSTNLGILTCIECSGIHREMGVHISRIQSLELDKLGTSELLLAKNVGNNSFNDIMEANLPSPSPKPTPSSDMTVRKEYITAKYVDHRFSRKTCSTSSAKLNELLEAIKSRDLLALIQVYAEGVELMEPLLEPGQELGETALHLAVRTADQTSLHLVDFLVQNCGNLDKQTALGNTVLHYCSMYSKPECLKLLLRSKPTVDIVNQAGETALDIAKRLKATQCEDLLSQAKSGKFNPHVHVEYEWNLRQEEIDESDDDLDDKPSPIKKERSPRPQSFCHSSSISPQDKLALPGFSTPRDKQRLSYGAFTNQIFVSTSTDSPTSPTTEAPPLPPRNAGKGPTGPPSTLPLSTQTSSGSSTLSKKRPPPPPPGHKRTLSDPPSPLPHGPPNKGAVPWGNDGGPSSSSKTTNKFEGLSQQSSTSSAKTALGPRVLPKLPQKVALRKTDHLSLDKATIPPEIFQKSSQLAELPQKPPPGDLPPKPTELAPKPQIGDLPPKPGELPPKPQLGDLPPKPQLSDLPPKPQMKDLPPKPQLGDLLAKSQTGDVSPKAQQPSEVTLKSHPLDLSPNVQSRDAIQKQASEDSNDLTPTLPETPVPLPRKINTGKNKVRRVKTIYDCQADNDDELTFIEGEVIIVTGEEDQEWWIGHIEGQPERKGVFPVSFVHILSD
Sequence of 72 kDa type IV collagenase (P08253 whole entry): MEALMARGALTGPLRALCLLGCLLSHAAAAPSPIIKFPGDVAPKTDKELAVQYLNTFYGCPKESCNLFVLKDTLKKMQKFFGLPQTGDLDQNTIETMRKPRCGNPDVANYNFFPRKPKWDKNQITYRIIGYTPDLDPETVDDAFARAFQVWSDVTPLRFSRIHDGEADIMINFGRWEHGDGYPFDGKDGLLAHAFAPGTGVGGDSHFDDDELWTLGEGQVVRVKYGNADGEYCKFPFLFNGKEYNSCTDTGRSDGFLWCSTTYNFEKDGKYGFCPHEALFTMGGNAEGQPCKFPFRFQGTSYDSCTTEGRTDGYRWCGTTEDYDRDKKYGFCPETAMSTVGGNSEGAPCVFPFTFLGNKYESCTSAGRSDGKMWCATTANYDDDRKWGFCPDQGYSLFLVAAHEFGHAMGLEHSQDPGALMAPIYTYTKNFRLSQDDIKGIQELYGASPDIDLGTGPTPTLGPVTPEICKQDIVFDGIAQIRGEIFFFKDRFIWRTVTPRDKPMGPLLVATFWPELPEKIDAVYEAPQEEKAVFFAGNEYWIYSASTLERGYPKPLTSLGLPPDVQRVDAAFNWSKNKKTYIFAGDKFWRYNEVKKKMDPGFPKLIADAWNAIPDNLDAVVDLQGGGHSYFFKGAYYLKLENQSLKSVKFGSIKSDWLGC
Sequence of 26S proteasome non-ATPase regulatory subunit 14 (O00487 whole entry): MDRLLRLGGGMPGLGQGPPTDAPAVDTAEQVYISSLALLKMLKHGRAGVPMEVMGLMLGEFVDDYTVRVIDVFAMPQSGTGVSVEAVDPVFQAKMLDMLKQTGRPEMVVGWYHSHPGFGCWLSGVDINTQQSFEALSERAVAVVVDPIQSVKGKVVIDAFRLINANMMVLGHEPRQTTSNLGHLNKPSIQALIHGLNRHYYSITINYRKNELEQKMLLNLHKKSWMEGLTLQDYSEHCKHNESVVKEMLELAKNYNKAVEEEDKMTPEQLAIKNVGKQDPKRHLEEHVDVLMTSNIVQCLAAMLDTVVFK
Sequence of Long-chain-fatty-acid--AMP ligase FadD28 (P9WQ59 whole entry): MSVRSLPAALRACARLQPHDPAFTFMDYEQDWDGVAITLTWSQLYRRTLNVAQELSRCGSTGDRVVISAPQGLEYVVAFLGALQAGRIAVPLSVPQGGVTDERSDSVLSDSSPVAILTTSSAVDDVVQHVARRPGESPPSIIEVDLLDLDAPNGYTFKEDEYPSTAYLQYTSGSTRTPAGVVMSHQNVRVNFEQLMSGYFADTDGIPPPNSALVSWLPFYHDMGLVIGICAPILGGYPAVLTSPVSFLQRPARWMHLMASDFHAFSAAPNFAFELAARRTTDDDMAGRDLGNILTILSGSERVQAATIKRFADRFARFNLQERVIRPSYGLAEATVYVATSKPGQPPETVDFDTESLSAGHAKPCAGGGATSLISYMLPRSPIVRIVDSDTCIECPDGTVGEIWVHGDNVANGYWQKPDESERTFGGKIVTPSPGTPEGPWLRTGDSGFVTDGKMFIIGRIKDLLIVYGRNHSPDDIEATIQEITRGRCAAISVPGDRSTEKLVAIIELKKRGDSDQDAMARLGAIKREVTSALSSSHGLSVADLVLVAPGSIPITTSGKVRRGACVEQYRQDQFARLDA

SMILES: CCN=C(S)N(CCCN(CC)CC)Cc1cc2cc3c(cc2nc1O)OCO3
- AC50 [1]: 15.7 µM (active)

SMILES: O=C(CCSCc1cccc(F)c1)NCCc1ccccc1
- EC50 [2]: > 29.9 µM (inactive)
- IC50 [3]: 7.43 µM (active)
- IC50 [4]: > 29.9 µM (inactive)
- EC50 [5]: > 29.9 µM (inactive)

SMILES: Fc1ccccc1-c1nnc(S)n1Cc1ccccc1
- IC50 (Beta-lactamase [6]): > 59.6 µM (inactive)
- IC50 (Beta-lactamase [7]): > 59.6 µM (inactive)
- IC50 (Beta-lactamase [8]): > 59.6 µM (inactive)

SMILES: Cc1cccn2c(=O)c(/C=C(\C#N)C(=O)NC3CCS(=O)(=O)C3)c(N3CCC(C(N)=O)CC3)nc12 (stereo not drawn)
- AC50 (cells): 4.38 µM (active)

SMILES: Cc1cccc(C(=O)N2CCC(=O)N([C@H](COCc3ccc(Cl)cc3)Cc3ccccc3)CC2)c1
- AC50 (Vero): 33.6 µM (active)
- AC50 (A549): 28.5 µM (active)

SMILES: CN1/C(=C\C(=O)c2cncc(Br)c2)C(C)(C)c2ccccc21
- IC50 [9]: 66.5 µM (inactive)
- IC50 [10]: 23.7 µM (inactive)

SMILES: N#Cc1ccc(-c2ccc(OCC(=O)NCC(=O)Nc3ccc(F)c(F)c3F)cc2)cc1
- IC50 [11]: 12.7 µM (active)
- IC50 [12]: > 100 µM (inactive)
- IC50 (Prothrombin): > 100 µM (inactive)
- IC50 [13]: 26.1 µM (inactive)

SMILES: COc1cccc(-n2nnnc2SCC(=O)Nc2cccc(C)n2)c1
- AC50 [14]: 50.1 µM (active)

SMILES: CC1CCN(CCc2nc3cc(NC(=O)Nc4ccccc4)ccc3n2C)CC1
- AC50 [15]: 2.74 µM (active)

SMILES: COc1ccc(C)c2sc(N(CCCN(C)C)C(=O)c3ccc(S(=O)(=O)N4CCc5ccccc5C4)cc3)nc12
- EC50 (BJ [16]): 1.48 µM (inconclusive)
- EC50 (BJ [17]): 5.65 µM (active)
- EC50 (BJ [18]): 2.13 µM (inconclusive)
- EC50 [19]: 4.25 µM (active)
- AC50 [20]: 4.4 µM (active)
- AC50 [21]: 2.98 µM (active)
- AC50 [22]: 5.51 µM (active)
- IC50 [23]: > 69.5 µM (inactive)
- IC50 [24]: > 69.5 µM (inactive)
